Columns and labels:
[1] = tested on: B16-F10 mouse melanoma tumor; assay: Daily vs single bolus intratumoral administration in B16-F10 mouse melanoma tumor model; format: in vivo; conditions: anti-PD1 mAb 100 ug i.p. Day 4 and 9
Description: Mouse melanoma cells (B16-F10) are to be injected into the flank (right side) of mice (C57Bl/6) and a tumor is to be allowed to form. The agent will be administered intratumorally or peritumorally (i.e., intradermally or subcutaneously) either as: • 1. a single bolus, • 2. a series of fractional injections where the total dose given over the time frame is equivalent to the single bolus. These injections may be given daily or every other day. • 3. a silk microneedle patch formulated with the one or more therapeutic agents.
Tumor growth will be measured two to three times weekly. Animals will be euthanized when humane endpoints have been reached. These endpoints include weight loss >15%, body condition score <1, tumor volume >1 cm^3, tumor length (defined as the longest dimension) >1.5 cm, or tumor ulceration/necrosis. These humane endpoints apply to all in vivo experiments using the melanoma model.
According to the methods outlined above, daily intratumoral administration was compared to single intratumoral bolus doses, with IL-2 or gemcitabine, using a B16-F10 mouse melanoma tumor model. For this study, two cycles of treatment were performed, including a bolus administration on Day 7 and on Day 21, and daily administration on Days 7-11 and Days 21-25. […] On Day 0, mice were inoculated by subcutaneous administration of B16-F10 cells. […]

CT26 colon carcinoma = assay: Daily vs single bolus intratumoral administration in murine CT26 colon carcinoma model; format: in vivo, mouse; conditions: daily intratumoral 95 μg days 7-11 compared to single bolus 475 μg day 7; anti-PD1 mAb 100 μg i.p. day 4 and 9
Description: Daily intratumoral administration compared to single intratumoral bolus doses was further investigated using gemcitabine in a murine CT26 colon carcinoma model (see FIG. 7A-7B). On day 0, mice were inoculated by subcutaneous administration of CT26 cells. On day 4 and day 9, mice were administered a dose of an anti-PD1 mAb (100 μg per dose) by intraperitoneal injection. Data was pooled from two experiments, with 10 mice per group.
CT26 mice in the ‘single bolus dose’ group received a single bolus dose of gemcitabine (475 μg) (intratumoral) at day 7, and four doses of saline (intratumoral) for the next four days (FIG. 7A). CT26 mice in the ‘daily dose’ group received daily doses of gemcitabine (95 μg) (intratumoral) over days 7-11 (5 total doses) (FIG. 7B). Each daily doses was a fractional dose equivalent to approximately ⅕ of the single bolus dose.

## Nc1ccn([C@@H]2O[C@H](CO)[C@@H](O)C2(F)F)c(=O)n1 [gemcitabine]
[1]; daily intratumoral doses (Days 7-11 and 21-25) compared to single bolus doses (Day 7 and 21)
  survival (Kaplan-Meier curve): greater survival
[1]; daily intratumoral doses (Days 7-11 and 21-25, each 1/5 of bolus) compared to single bolus doses (Day 7 and 21)
  tumor burden, as determined by tumor volume over time: lower tumor burden
CT26 colon carcinoma
  overall survivability (Kaplan-Meier survival curve): greater than the bolus dose group
  tumor burden (tumor volume over time): lower tumor burden
